Reference: patent US9468621B2, “Metal-salen complex compound responsive drug and intra-corporeal behavior control system for metal-salen complex compound” (IHI Corporation, priority 2011, dated 2016)
Like-named read-outs stand apart in the source and are kept apart here. Blank lines part the entries; values can stand above or below the molecule they belong to.

What was measured:
[1] = Calcein AM fluorescence (RFU) assay of chelation of the ferrous-salen complex compound by a metal chelating agent; format: biochemical; conditions: for EC50: Calcein AM, FIG. 1, read-out: EC50 (50% effective concentration of a maximum reaction value) of chelator, RFU recovery
Excerpt: If calcein (Calcein: fluorescent indicator) is used solely, it emits light (an RFU value increases); however, if calcein binds with a ferrous-salen complex compound, light emission diminishes (the RFU value decreases). Accordingly, if deferoxamine (deferoximine: the above-mentioned structural formula (II)) exists, iron ions of the ferrous-salen complex compound are adsorbed by the deferoxamine and ferrous-salen ligands are detached from calcein. As a result, the amount of the calcein-divalent-iron-salen complex compound decreases and the light emission […]. You can tell that as an amount of emitted light […], the metal-salen complex compound combines with the metal chelating agent.
The ferrous-salen complex compound (M=Fe, R═R′═H) indicated as the aforementioned structural formula (III) was produced based on descriptions of WO 2010/058280. […] Subsequently, 15 μM deferoxamine was administered to this ferrous-salen complex compound—calcein AM complex—and measurement was performed one hour later by using a measuring device (parkinermar ARVO) (λexc=485 nm, λem=520 nm).
A 15 μM of deferoxamine and vitamin C was administered to the ferrous-salen complex compound—calcein AM complex—which was produced in Example 1 above and measurement was performed one hour later by using the measuring device (parkinermar ARVO) (λexc=485 nm, λem=520 nm). As a result, it was also confirmed that when the ferrous-salen complex compound was added to Calcein AM, the RFU (Relative Fluorescent Unit) value was low. However, it was confirmed that when the chelator (deferoxamine and vitamin C) continued to be added, the RFU value increased.

[2] = test system: POS-1 cells (mouse osteosarcoma cells); assay: MTT cell survival assay: neutralizing cytotoxicity of the ferrous-salen complex compound; format: cell-based; conditions: 24 hours
Description: (§1) The cells were collected 24 hours later and an MTT reagent for cell survival assay was administered, 400 μL of 0.04-mol of HCl/isopropyl alcohol was added 45 minutes later, 100 μL of the obtained mixture was dispensed to 96-well plates, and absorbance at 570 nm was measured, thereby calculating cell viability.
as §1, with “and the” for “and an”

EC50 ([1]; ferrous-salen complex compound (NBEI) 10 μM): 0.966 µM
EC50 ([1]; ferrous-salen complex compound (NBEI) 50 μM): 1.63 µM
Compound: CC(=O)N(O)CCCCCNC(=O)CCC(=O)N(O)CCCCCNC(=O)CCC(=O)N(O)CCCCCN [deferoxamine, (N-(5-aminopentyl)-N-hydroxy-N′-[5-(N-hydroxy-3-{[5-(N-hydroxyacetamido)pentyl]carbamoyl}propanamido)pentyl]butanediamide)]
RFU (Relative Fluorescent Unit) value when the chelator continued to be added ([1]; chelator added to ferrous-salen complex compound-calcein AM complex, measured one hour later, λexc=485 nm, λem=520 nm): increased

Compound: O=C(O)c1ccc(-n2nc(-c3ccccc3O)nc2-c2ccccc2O)cc1 [deferasirox, 4-[3,5-Bis(2-hydroxyphenyl)-1,2,4-triazol-1-yl]benzoic acid]
cell viability as chelator concentration increased (neutralization of toxicity) ([2]; 7.5 μM ferrous-salen complex compound (NBEI) plus deferasirox 0.1-15 μM, FIG. 2): increased
deferasirox concentration at which the effect on cell viability did not change further ([2]; 7.5 μM ferrous-salen complex compound (NBEI)): ≥ 1.8 µM

Compound: [Fe+2].[O-]c1ccccc1C=NCCN=Cc1ccccc1[O-] [ferrous-salen complex compound]
cell viability ([2]; 7.5 μM, control = 100%, FIG. 2): decreased
RFU (Relative Fluorescent Unit) value when added to Calcein AM ([1]; ferrous-salen complex compound added to Calcein AM, no chelator): low
